Measurements: patent US10208046B2, “Nitrogen-containing heterocyclic compound” (Takeda Pharmaceutical Company Limited, priority 2014, dated 2019)

Target: T1, human M1 receptor (hCHRM1) (Homo sapiens, UniProt P11229)
T1 construct: expressed in transfected cells
T1 sequence (P11229 1-460): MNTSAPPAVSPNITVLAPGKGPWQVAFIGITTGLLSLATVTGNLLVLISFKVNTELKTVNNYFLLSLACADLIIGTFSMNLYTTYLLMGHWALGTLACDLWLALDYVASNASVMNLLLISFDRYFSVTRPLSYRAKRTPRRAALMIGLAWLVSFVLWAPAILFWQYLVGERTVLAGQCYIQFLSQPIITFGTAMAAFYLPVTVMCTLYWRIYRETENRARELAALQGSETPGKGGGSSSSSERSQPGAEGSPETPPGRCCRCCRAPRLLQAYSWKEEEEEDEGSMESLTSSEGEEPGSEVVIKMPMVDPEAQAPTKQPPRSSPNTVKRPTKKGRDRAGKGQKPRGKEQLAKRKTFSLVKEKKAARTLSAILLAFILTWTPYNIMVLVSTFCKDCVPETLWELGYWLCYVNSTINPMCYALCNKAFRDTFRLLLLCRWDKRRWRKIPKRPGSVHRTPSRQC
Assay: Measurement of M1 receptor positive allosteric modulator (M1PAM) activity, calcium fluorescence in CHO-K1 cells;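 as to EC50: potency reported as IP value in nM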
Assay type: cell-based
Settings: for activity (%) at 10 μM: 10 μM test compound with acetylcholine at EC20, 100% = acetylcholine 1 μM, 0% = DMSO; for EC50: inflection point in the concentration-dependent curve, acetylcholine at EC20 (final 0.6-0.8 nM), CHO-K1 cells expressing human M1, Fluo-4, FLIPRtetra, read-out: IP value
Protocol: Measurement of M1 Receptor Positive Allosteric Modulator (M1PAM) Activity
The activity of a test compound in the presence of acetylcholine at EC20 concentration (final concentration 0.6-0.8 nM), which affords an action corresponding to about 20% of the maximum activity, was measured as PAM activity. The method is as follows. CHO-K1 cells stably expressing a human M1 receptor (hCHRM1) were plated on a 384-well black clear bottom plate (BD Falcon) at 5,000 cells/well, and cultured in an incubator at 37° C., 5% CO2 for 1 day. The medium in the cell plate was removed, and assay buffer A containing calcium indicator (Recording medium (DOJINDO LABORATORIES), 0.1% BSA (Wako Pure Chemical Industries, Ltd.), 2.5 μg/mL Fluo-4 AM (DOJINDO LABORATORIES), 0.08% Pluronic F127 (DOJINDO LABORATORIES), 1.25 mM probenecid (DOJINDO LABORATORIES)) was added at 30 μL/well. The cells were left standing in the incubator at 37° C., 5% CO2 for 30 min, and further left standing at room temperature for 30 min. A test compound prepared by diluting with assay buffer B (HBSS (Invitrogen), 20 mM HEPES (Invitrogen), 0.1% BSA) containing 2.4-3.2 nM acetylcholine was added at 10 μL/well, and the fluorescence was measured by FLIPRtetra (Molecular Devices) for 1 min every 1 second. With the definition that the amount of change in the fluorescence on addition of acetylcholine (final concentration 1 μM) is 100% and that on addition of DMSO instead of a test compound is 0%, the activity (%) of the test compound was calculated, and the inflection point in the concentration-dependent curve of the test compound was calculated as IP values.

activity (%) at 10 μM [%] | EC50 [nM] | SMILES
91 | 17 | CCn1cc(-c2ccc(CN3Cc4ncnc(OCC(C)(F)F)c4C3=O)cc2)cn1 [Example 1, 4-(2,2-difluoropropoxy)-6-(4-(1-ethyl-1H-pyrazol-4-yl)benzyl)-6,7-dihydro-5H-pyrrolo[3,4-d]pyrimidin-5-one]
99 | 8.7 | CCn1cc(-c2ccc(CN3Cc4ncnc(OCC(F)F)c4C3=O)c(F)c2)cn1 [Example 4, 4-(2,2-difluoroethoxy)-6-(4-(1-ethyl-1H-pyrazol-4-yl)-2-fluorobenzyl)-6,7-dihydro-5H-pyrrolo[3,4-d]pyrimidin-5-one]
105 | 17 | Cc1nn(C)cc1-c1ccc(CN2Cc3ncnc(OCC(C)(C)F)c3C2=O)cc1 [Example 5, 6-(4-(1,3-dimethyl-1H-pyrazol-4-yl)benzyl)-4-(2-fluoro-2-methylpropoxy)-6,7-dihydro-5H-pyrrolo[3,4-d]pyrimidin-5-one]
87 | 23 | Cc1cc(-c2ccc(CN3Cc4ncnc(OCC(F)(F)F)c4C3=O)cc2)ccn1 [Example 11, 6-(4-(2-methylpyridin-4-yl)benzyl)-4-(2,2,2-trifluoroethoxy)-6,7-dihydro-5H-pyrrolo[3,4-d]pyrimidin-5-one]
97 | 59 | CC(F)(F)COc1nccc2c1C(=O)N(Cc1ccc(-c3cnn(CC(F)(F)F)c3)cc1)C2 [Example 12, 4-(2,2-difluoropropoxy)-2-(4-(1-(2,2,2-trifluoroethyl)-1H-pyrazol-4-yl)benzyl)-1,2-dihydro-3H-pyrrolo[3,4-c]pyridin-3-one]
100 | 55 | CC(F)(F)COc1nccc2c1C(=O)N(Cc1ccc(-c3cnn(CC(F)F)c3)cc1)C2 [Example 13, 2-(4-(1-(2,2-difluoroethyl)-1H-pyrazol-4-yl)benzyl)-4-(2,2-difluoropropoxy)-1,2-dihydro-3H-pyrrolo[3,4-c]pyridin-3-one]
88 | 51 | Cn1cc2cc(-c3ccc(CN4Cc5ccnc(OCC(C)(F)F)c5C4=O)cc3)ccc2n1 [Example 14, 4-(2,2-difluoropropoxy)-2-(4-(2-methyl-2H-indazol-5-yl)benzyl)-1,2-dihydro-3H-pyrrolo[3,4-c]pyridin-3-one]
99 | 95 | CC(F)(F)COc1nccc2c1C(=O)N(Cc1ccc(-c3cnn(C4CC4)c3)cc1)C2 [Example 17, 2-(4-(1-cyclopropyl-1H-pyrazol-4-yl)benzyl)-4-(2,2-difluoropropoxy)-1,2-dihydro-3H-pyrrolo[3,4-c]pyridin-3-one]
102 | 280 | Cc1nn(C)cc1-c1ccc(CN2Cc3ccnc(OCC(F)(F)C(F)F)c3C2=O)cc1 [Example 18, 2-(4-(1,3-dimethyl-1H-pyrazol-4-yl)benzyl)-4-(2,2,3,3-tetrafluoropropoxy)-1,2-dihydro-3H-pyrrolo[3,4-c]pyridin-3-one]
91 | 360 | CC(F)(F)COc1nccc2c1C(=O)N(Cc1ccc(-c3ccns3)cc1)C2 [Example 20, 4-(2,2-difluoropropoxy)-2-(4-(1,2-thiazol-5-yl)benzyl)-1,2-dihydro-3H-pyrrolo[3,4-c]pyridin-3-one]
101 | 290 | CC(F)(F)COc1nccc2c1C(=O)N(Cc1ccc(-c3ccoc3)cc1F)C2 [Example 21, 4-(2,2-difluoropropoxy)-2-(2-fluoro-4-(3-furyl)benzyl)-1,2-dihydro-3H-pyrrolo[3,4-c]pyridin-3-one]
98 | 27 | CCn1cc(-c2ccc(CN3Cc4ncnc(OCC(F)(F)F)c4C3=O)c(F)c2)cn1 [Example 35, 6-(4-(1-ethyl-1H-pyrazol-4-yl)-2-fluorobenzyl)-4-(2,2,2-trifluoroethoxy)-6,7-dihydro-5H-pyrrolo[3,4-d]pyrimidin-5-one]

Further lines, the compound ahead of its results:

SMILES | activity (%) at 10 μM [%] | EC50 [nM]
CCn1cc(-c2ccc(CN3Cc4ncnc(OCC(F)F)c4C3=O)cc2)cn1 [Example 2, 4-(2,2-difluoroethoxy)-6-(4-(1-ethyl-1H-pyrazol-4-yl)benzyl)-6,7-dihydro-5H-pyrrolo[3,4-d]pyrimidin-5-one] | 108 | 31
CCn1cc(-c2ccc(CN3Cc4ncnc(OCC(C)(F)F)c4C3=O)c(F)c2)cn1 [Example 3, 4-(2,2-difluoropropoxy)-6-(4-(1-ethyl-1H-pyrazol-4-yl)-2-fluorobenzyl)-6,7-dihydro-5H-pyrrolo[3,4-d]pyrimidin-5-one] | 103 | 8.9
CCC(F)(F)COc1nccc2c1C(=O)N(Cc1ccc(-c3cn(C)nc3C)cc1F)C2 [Example 7, 4-(2,2-difluorobutoxy)-2-(4-(1,3-dimethyl-1H-pyrazol-4-yl)-2-fluorobenzyl)-1,2-dihydro-3H-pyrrolo[3,4-c]pyridin-3-one] | 90 | 9.1
CCC(F)(F)COc1ncnc2c1C(=O)N(Cc1ccc(-c3cn(C)nc3C)cc1)C2 [Example 8, 4-(2,2-difluorobutoxy)-6-(4-(1,3-dimethyl-1H-pyrazol-4-yl)benzyl)-6,7-dihydro-5H-pyrrolo[3,4-d]pyrimidin-5-one] | 109 | 23
Cn1ccc(-c2ccc(CN3Cc4ncnc(OCC(F)(F)F)c4C3=O)c(F)c2)n1 [Example 9, 6-(2-fluoro-4-(1-methyl-1H-pyrazol-3-yl)benzyl)-4-(2,2,2-trifluoroethoxy)-6,7-dihydro-5H-pyrrolo[3,4-d]pyrimidin-5-one] | 102 | 77
CCC(F)(F)COc1ncnc2c1C(=O)N(Cc1ccc(C(=O)NC)cc1)C2 [Example 10, 4-((4-(2,2-difluorobutoxy)-5-oxo-5,7-dihydro-6H-pyrrolo[3,4-d]pyrimidin-6-yl)methyl)-N-methylbenzamide] | 103 | 33
Cc1nn(C)cc1-c1cc(F)c(CN2Cc3ncnc(OCC(F)F)c3C2=O)s1 [Example 15, 4-(2,2-difluoroethoxy)-6-((5-(1,3-dimethyl-1H-pyrazol-4-yl)-3-fluoro-2-thienyl)methyl)-6,7-dihydro-5H-pyrrolo[3,4-d]pyrimidin-5-one] | 100 | 16
Cn1cc(-c2ccc(CN3Cc4ccnc(OCCC(F)(F)F)c4C3=O)c(F)c2)nn1 [Example 16, 2-(2-fluoro-4-(1-methyl-1H-1,2,3-triazol-4-yl)benzyl)-4-(3,3,3-trifluoropropoxy)-1,2-dihydro-3H-pyrrolo[3,4-c]pyridin-3-one] | 111 | 85
CCC(F)(F)COc1nccc2c1C(=O)N(Cc1ccc(-c3cnnc(C)c3)cc1)C2 [Example 19, 4-(2,2-difluorobutoxy)-2-(4-(6-methylpyridazin-4-yl)benzyl)-1,2-dihydro-3H-pyrrolo[3,4-c]pyridin-3-one] | 98 | 240
CCn1cc(-c2ccc(CN3Cc4ncnc(OCC(F)(F)CC)c4C3=O)s2)cn1 [Example 30, 4-(2,2-difluorobutoxy)-6-((5-(1-ethyl-1H-pyrazol-4-yl)-2-thienyl)methyl)-6,7-dihydro-5H-pyrrolo[3,4-d]pyrimidin-5-one] | 103 | 96
Cc1nn(C)cc1-c1ccc(CN2Cc3ncnc(OCC(F)F)c3C2=O)s1 [Example 34, 4-(2,2-difluoroethoxy)-6-((5-(1,3-dimethyl-1H-pyrazol-4-yl)-2-thienyl)methyl)-6,7-dihydro-5H-pyrrolo[3,4-d]pyrimidin-5-one] | 100 | 77
Cc1nn(C)cc1-c1ccc(CN2Cc3ncnc(OCC(F)(F)F)c3C2=O)c(F)c1 [Example 36, 6-(4-(1,3-dimethyl-1H-pyrazol-4-yl)-2-fluorobenzyl)-4-(2,2,2-trifluoroethoxy)-6,7-dihydro-5H-pyrrolo[3,4-d]pyrimidin-5-one] | 99 | 22
